The source of these data is patent US20230265151A1, “GIP/GLP1 CO-AGONIST COMPOUNDS” (priority 2020, published 2023).

The structures appear in SMILES notation. Where two headings read alike, the source gives them in different places. A value given as a limit tells only on which side of the number the result lay.

Holding throughout (type): cell-based
Experiment [1] concerns the target T1, hGCGR (Homo sapiens, UniProt P47871).
T1 construct: expressed in transfected cells
The experiment can be described thus: Functional cAMP formation (HTRF) in HEK-293 clonal cells expressing hGCGR, 0.1% bovine casein, without or with 1.0% human serum albumin. Put shortly: (§1)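 Readings of the HTRF 665/620 nm ratio, which falls as cAMP rises, were converted to nM cAMP using a standard curve after 30 min peptide exposure at 37° C.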
For orientation: Changes in cAMP serve as a functional read-out for many G protein-coupled receptors.

The target in experiment [2] is hGLP-1R (Homo sapiens, UniProt P43220). In words: Functional cAMP formation (HTRF) in HEK-293 clonal cells expressing hGLP-1R, 0.1% bovine casein, without or with 1.0% human serum albumin. Particulars: for Emax: 0.1% bovine casein, arithmetic mean; for EC50: geometric mean. The arrangement: expressed in transfected cells. Put shortly:
as §1

In experiment [3] the target is T2, hGIPR (Homo sapiens, UniProt P48546).
T2 construct: expressed in transfected cells
T2 sequence (P48546 22-466): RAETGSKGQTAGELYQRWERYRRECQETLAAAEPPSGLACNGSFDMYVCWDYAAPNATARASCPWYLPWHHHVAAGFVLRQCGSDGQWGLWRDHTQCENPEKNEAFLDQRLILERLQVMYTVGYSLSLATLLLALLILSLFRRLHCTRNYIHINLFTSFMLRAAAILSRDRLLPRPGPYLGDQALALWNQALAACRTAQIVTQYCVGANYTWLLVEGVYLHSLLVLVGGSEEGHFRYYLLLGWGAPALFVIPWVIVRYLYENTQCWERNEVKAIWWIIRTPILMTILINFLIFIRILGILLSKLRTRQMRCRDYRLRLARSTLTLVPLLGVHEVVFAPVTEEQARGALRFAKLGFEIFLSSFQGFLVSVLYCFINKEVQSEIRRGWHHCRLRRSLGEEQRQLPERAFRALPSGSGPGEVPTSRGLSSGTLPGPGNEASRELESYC
In words: Functional cAMP formation (HTRF) in HEK-293 clonal cells expressing hGIPR, 0.1% bovine casein, without or with 1.0% human serum albumin. Particulars: for EC50: geometric mean, read-out: hGIPR EC50, nM (SEM, n). The method, boiled down:
as §1

Where [4] appears, read: cAMP, 37° C., 0.1% bovine casein (no human serum albumin), geometric mean, read-out: hGCGR EC50, nM (SEM, n).
Where [5] appears, read: cAMP, 37° C., 0.1% bovine casein and 1.0% human serum albumin, geometric mean (SEM, n), read-out: hGCGR EC50, nM (SEM, n).
The mark [6] stands for this setting: HEK293, cAMP, 37° C., percent of maximal response to GLP-1(7-36)NH2, read-out: hGLP-1R Emax, % ± SEM.
Setting [7] is: cAMP, 37° C., 0.1% bovine casein (no human serum albumin), read-out: hGLP-1R EC50, nM (SEM, n).
The mark [8] stands for this setting: HEK293, cAMP, 37° C., 0.1% bovine casein and 1.0% human serum albumin, percent of maximal response to GIP(1-42)NH2, read-out: hGIPR Emax, % ± SEM.

T1 sequence (P47871 26-477): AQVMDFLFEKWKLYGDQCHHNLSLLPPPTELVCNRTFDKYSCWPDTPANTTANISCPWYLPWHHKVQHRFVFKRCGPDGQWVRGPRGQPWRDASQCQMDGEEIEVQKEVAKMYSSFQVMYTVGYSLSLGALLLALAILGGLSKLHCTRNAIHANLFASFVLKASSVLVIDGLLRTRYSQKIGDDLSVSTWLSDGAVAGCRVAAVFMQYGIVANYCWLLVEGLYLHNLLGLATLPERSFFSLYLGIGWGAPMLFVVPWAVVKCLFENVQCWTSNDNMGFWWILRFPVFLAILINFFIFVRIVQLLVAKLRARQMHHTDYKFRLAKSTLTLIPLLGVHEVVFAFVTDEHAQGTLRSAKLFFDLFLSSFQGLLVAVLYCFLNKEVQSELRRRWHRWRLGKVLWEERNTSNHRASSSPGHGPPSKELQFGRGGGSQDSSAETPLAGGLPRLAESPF
hGLP-1R, sequence (P43220 24-463): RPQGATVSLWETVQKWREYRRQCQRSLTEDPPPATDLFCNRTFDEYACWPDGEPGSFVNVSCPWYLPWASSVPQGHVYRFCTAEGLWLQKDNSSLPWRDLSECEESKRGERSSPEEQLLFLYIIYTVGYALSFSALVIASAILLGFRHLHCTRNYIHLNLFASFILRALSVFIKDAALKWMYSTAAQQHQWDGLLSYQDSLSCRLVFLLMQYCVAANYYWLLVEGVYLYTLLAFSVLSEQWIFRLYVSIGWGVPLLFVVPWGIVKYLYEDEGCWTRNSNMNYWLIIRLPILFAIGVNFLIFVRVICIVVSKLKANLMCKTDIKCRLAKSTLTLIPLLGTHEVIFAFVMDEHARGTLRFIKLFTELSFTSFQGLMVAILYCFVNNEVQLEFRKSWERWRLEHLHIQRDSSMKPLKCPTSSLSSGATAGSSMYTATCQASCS

With `CC[C@H](C)[C@H](NC(=O)[C@H](CC(C)C)NC(=O)[C@](C)(Cc1ccc(O)cc1)NC(=O)[C@H](CCCCNC(=O)COCCOCCNC(=O)COCCOCCNC(=O)[C@@H](N)CCCCNC(=O)CCCCCCCCCCCCC(=O)O)NC(=O)[C@@H](NC(=O)[C@H](Cc1ccccc1)NC(=O)[C@H](CCC(=O)O)NC(=O)C(C)(C)NC(=O)[C@H](CCC(N)=O)NC(=O)[C@H](C)NC(=O)[C@H](CCCCNC(=O)COCCOCCNC(=O)COCCOCCNC(=O)[C@@H](N)CCCCNC(=O)CCCCCCCCCCCCC(=O)O)NC(=O)[C@H](CCCN)NC(=O)[C@H](CC(=O)O)NC(=O)[C@H](CC(C)C)NC(=O)[C@](C)(CC(C)C)NC(=O)[C@@H](NC(=O)C(C)(C)NC(=O)[C@@H](NC(=O)[C@H](CC(=O)O)NC(=O)[C@H](CO)NC(=O)[C@@H](NC(=O)[C@](C)(Cc1ccccc1F)NC(=O)[C@@H](NC(=O)CNC(=O)[C@H](CCC(=O)O)NC(=O)C(C)(C)NC(=O)[C@@H](N)Cc1ccc(O)cc1)[C@@H](C)O)[C@@H](C)O)C(C)C)[C@@H](C)CC)[C@@H](C)CC)C(=O)N[C@@H](CCC(=O)O)C(=O)NCC(=O)NCC(=O)N1CCC[C@H]1C(=O)N[C@@H](CO)C(=O)N[C@@H](CO)C(=O)NCC(=O)N[C@@H](C)C(=O)N1CCC[C@H]1C(=O)N1CCC[C@H]1C(=O)N1CCC[C@H]1C(=O)N[C@@H](CO)C(N)=O` [Example 166], the EC50 (usually the concentration at which the effect is half-maximal) in experiment [1] (hGCGR EC50, nM (SEM, n), cAMP, incubated at 37° C., 0.1% bovine casein (no human serum albumin), geometric mean) is over 9950 nM; in experiment [2] (hGLP-1R EC50, nM (SEM, n), cAMP, incubated at 37° C., 0.1% bovine casein (no human serum albumin)) it was 0.192 nM. In addition, the Emax (in general, the size of the effect at its maximum, as opposed to the concentration needed) in experiment [2] (HEK293, read-out: hGLP-1R Emax, % ± SEM, percent of maximal response to GLP-1(7-36)NH2, 37° C.) was 90.3%; in experiment [3] (HEK293, read-out: hGIPR Emax, % ± SEM, percent of maximal response to GIP(1-42)NH2, 37° C., 0.1% bovine casein, arithmetic mean), 97%.

As to `CCCCCCCCCCCC(=O)N[C@@H](CCC(=O)NCCOCCOCC(=O)NCCOCCOCC(=O)NCCCC[C@H](NC(=O)CNC(=O)CNC(=O)[C@H](CCC(=O)O)NC(=O)[C@@H](NC(=O)[C@H](CC(C)C)NC(=O)[C@](C)(Cc1ccc(O)cc1)NC(=O)[C@@H](CCC(=O)O)NC(=O)[C@@H](NC(=O)[C@](C)(Cc1ccccc1)NC(=O)[C@H](CCC(=O)O)NC(=O)C(C)(C)NC(=O)[C@H](CCC(N)=O)NC(=O)[C@H](C)NC(=O)[C@H](CCCCNC(=O)COCCOCCNC(=O)COCCOCCNC(=O)CC[C@H](NC(=O)CCCCCCCCCCC)C(=O)O)NC(=O)[C@H](CCCN)NC(=O)[C@H](CC(=O)O)NC(=O)[C@H](CC(C)C)NC(=O)[C@](C)(CC(C)C)NC(=O)[C@@H](NC(=O)[C@H](CO)NC(=O)[C@H](Cc1ccncc1)NC(=O)[C@H](CC(=O)O)NC(=O)[C@H](CO)NC(=O)[C@@H](NC(=O)[C@](C)(Cc1ccccc1)NC(=O)[C@@H](NC(=O)CNC(=O)[C@H](CCC(=O)O)NC(=O)C(C)(C)NC(=O)[C@@H](N)Cc1ccc(O)cc1)[C@@H](C)O)[C@@H](C)O)[C@@H](C)CC)[C@@H](C)CC)[C@@H](C)CC)C(=O)N[C@@H](CO)C(=O)N[C@@H](CO)C(=O)NCC(=O)N[C@@H](C)C(=O)N1CCC[C@H]1C(=O)N1CCC[C@H]1C(=O)N1CCC[C@H]1C(=O)N[C@@H](CO)C(N)=O)C(=O)O` [Example 173], the EC50 in experiment [1] (0.1% bovine casein and 1.0% human serum albumin, 37° C., geometric mean, read-out: hGCGR EC50, nM (SEM, n)) was over 9950 nM; in experiment [1] (cAMP, incubated at 37° C., 0.1% bovine casein (no human serum albumin), geometric mean, read-out: hGCGR EC50, nM (SEM, n)) it was over 9950 nM; in experiment [2] (0.1% bovine casein and 1.0% human serum albumin, 37° C., read-out: hGLP-1R EC50, nM (SEM, n)) it was 29.7 nM; in experiment [2] (cAMP, incubated at 37° C., 0.1% bovine casein (no human serum albumin), read-out: hGLP-1R EC50, nM (SEM, n)), 0.343 nM; in experiment [3] (0.1% bovine casein and 1.0% human serum albumin, 37° C.), 1.24 nM; in experiment [3] (cAMP, incubated at 37° C., 0.1% bovine casein (no human serum albumin)) it was 0.0155 nM. For the same compound, the Emax in experiment [2] (HEK293, percent of maximal response to GLP-1(7-36)NH2, 37° C., read-out: hGLP-1R Emax, % ± SEM) turned out to be 89.9 ± 2.72%; in experiment [3] (HEK293, 0.1% bovine casein and 1.0% human serum albumin, 37° C., percent of maximal response to GIP(1-42)NH2, read-out: hGIPR Emax, % ± SEM), 92.9 ± 6.91%; in experiment [3] (HEK293, percent of maximal response to GIP(1-42)NH2, 37° C., 0.1% bovine casein, arithmetic mean, read-out: hGIPR Emax, % ± SEM), 87.8 ± 6.22%.

As for `CCCCCCCCCCCC(=O)N[C@@H](CCC(=O)NCCOCCOCC(=O)NCCOCCOCC(=O)NCCCC[C@H](NC(=O)[C@H](CCCN)NC(=O)[C@H](CC(=O)O)NC(=O)[C@H](CC(C)C)NC(=O)[C@](C)(CC(C)C)NC(=O)[C@@H](NC(=O)[C@H](CO)NC(=O)[C@H](CCc1ccc(O)cc1)NC(=O)[C@H](CC(=O)O)NC(=O)[C@H](CO)NC(=O)[C@@H](NC(=O)[C@](C)(Cc1ccccc1F)NC(=O)[C@@H](NC(=O)CNC(=O)[C@H](CCC(=O)O)NC(=O)C(C)(C)NC(=O)[C@@H](N)Cc1ccc(O)cc1)[C@@H](C)O)[C@@H](C)O)[C@@H](C)CC)C(=O)N[C@@H](C)C(=O)N[C@@H](CCC(N)=O)C(=O)NC(C)(C)C(=O)N[C@@H](CCCCNC(=O)COCCOCCNC(=O)COCCOCCNC(=O)CC[C@H](NC(=O)CCCCCCCCCCC)C(=O)O)C(=O)N[C@@H](Cc1ccccc1)C(=O)N[C@H](C(=O)N[C@H](CCC(=O)O)C(=O)N[C@@](C)(Cc1ccc(O)cc1)C(=O)N[C@@H](CC(C)C)C(=O)N[C@H](C(=O)N[C@@H](CCC(=O)O)C(=O)NCC(=O)NCC(=O)N1CCC[C@H]1C(=O)N[C@@H](CO)C(=O)N[C@@H](CO)C(=O)NCC(=O)N[C@@H](C)C(=O)N1CCC[C@H]1C(=O)N1CCC[C@H]1C(=O)N1CCC[C@H]1C(=O)N[C@@H](CO)C(N)=O)[C@@H](C)CC)[C@@H](C)CC)C(=O)O` [Example 323], the figures for the EC50 in experiment [1] (setting [4]), in experiment [1] (setting [5]) and in experiment [2] (setting [7]) were over 9950 nM, over 9950 nM and 0.203 nM, respectively. Further, the Emax in experiment [2] (setting [6]) was 92.6%; in experiment [3] (setting [8]) it was 92.9%.

As to `CC[C@H](C)[C@H](NC(=O)[C@H](CC(C)C)NC(=O)[C@](C)(Cc1ccc(O)cc1)NC(=O)[C@H](CCCCNC(=O)COCCOCCNC(=O)COCCOCCNC(=O)CC[C@H](NC(=O)CCCCCCCCCCCCCCC(=O)O)C(=O)O)NC(=O)[C@@H](NC(=O)[C@H](Cc1ccccc1)NC(=O)[C@H](CCCN)NC(=O)C(C)(C)NC(=O)[C@H](CCC(N)=O)NC(=O)[C@H](C)NC(=O)[C@H](CCC(N)=O)NC(=O)[C@H](CCCN)NC(=O)[C@H](CC(=O)O)NC(=O)[C@H](CC(C)C)NC(=O)[C@](C)(CC(C)C)NC(=O)[C@@H](NC(=O)C(C)(C)NC(=O)[C@H](Cc1ccncc1)NC(=O)[C@H](CC(=O)O)NC(=O)[C@H](CO)NC(=O)[C@@H](NC(=O)[C@](C)(Cc1ccccc1F)NC(=O)[C@@H](NC(=O)CNC(=O)[C@H](CCC(=O)O)NC(=O)C(C)(C)NC(=O)[C@@H](N)Cc1ccc(O)cc1)[C@@H](C)O)[C@@H](C)O)[C@@H](C)CC)[C@@H](C)CC)C(=O)N[C@@H](CCCCNC(=O)COCCOCCNC(=O)COCCOCCNC(=O)CC[C@H](NC(=O)CCCCCCCCCCCCCCC(=O)O)C(=O)O)C(=O)NCC(=O)NCC(=O)N1CCC[C@H]1C(=O)N[C@@H](CO)C(=O)N[C@@H](CO)C(=O)NCC(=O)N[C@@H](C)C(=O)N1CCC[C@H]1C(=O)N1CCC[C@H]1C(=O)N1CCC[C@H]1C(=O)N[C@@H](CO)C(N)=O` [Example 443], the EC50 in experiment [1] (setting [4]) is over 9950 nM; in experiment [1] (setting [5]), over 9950 nM; in experiment [2] (setting [7]), 0.294 nM; in experiment [3] (cAMP, 37° C., 0.1% bovine casein (no human serum albumin)) it was 0.0178 nM. Further, the values for the Emax in experiment [2] (setting [6]) and in experiment [3] (setting [8]) were 114% and 91.1%, respectively.
